In patent US8084210B2, “Methods for the assessment of drug response” (Theranostics Laboratory, priority 2008, dated 2011):
Several values for one entry are separate records, joined by “and”; a condition that tells them apart may be missing. Equal values may be shown once. Read-outs that look alike come from different tables or passages of the source. Each block holds one compound with its values, some of them ahead of it.

Experiments:
[1] = in vivo; cited from earlier work
[2] = system: ADP-induced platelet aggregation or activation; settings: low inhibition of ADP-induced platelet aggregation or activation; cited from earlier work
[3] = cited from earlier work
P2Y12 receptor = target: T1, P2Y12 receptor (Homo sapiens, UniProt Q9H244); assay: Platelet function by VerifyNow P2Y12 analyser in elective PCI patients given clopidogrel (PRINC trial); assay type: in vivo; settings: for inhibition at 75 mg / inhibition at 150 mg: human
T1 construct: light transmittance through whole blood, to measure platelet agglutination; from tissue; host or cells: Platelets in citrated whole blood (arterial or venous) of patients
From the text: The study protocol was approved by the Northern Regional Ethics Committee of New Zealand. Eligible patients were defined as all-corners for elective percutaneous coronary intervention who were on aspirin and naëve to clopidogrel. […] Patients were randomised into equal groups using a computerised random number generator. Block randomisation was not used, explaining the unbalanced grouping to treatment allocations. Clopidogrel was broken in half and repackaged into gelatine capsules packed with lactose powder to match placebo. Investigators and subjects were blinded to treatment allocation. A target of 120 patients was predefined for completion of the study. […] At discharge patients were randomized to receive either 75 mg or 150 mg once daily for one week and regular 75 mg once daily dosing thereafter. Adherence to the treatment regimen was tested by a phone interview and pill count. Arterial blood was sampled through 6Fr femoral sheaths and transferred immediately to 3.2% citrate 2 ml vacutainer tubes (Cat. #454321 Greiner Vacuette®, Greiner, Kremsmuenster, Austria), using a 20 G needle and syringe. After sheath removal blood was drawn by venepucture directly into vacutainer tubes. After collection the tubes were inverted four times for adequate mixing of the anticoagulant and left for ten minutes at 24 degrees before testing. Platelet function was tested at baseline, two, four and seven hours from first clopidogrel loading and at seven days. […] This device uses fibrinogen coated microbeads, an agonist of adenosine diphosphate (ADP) and light transmittance through whole blood, to measure platelet agglutination. The output of the device is measured as the proprietary platelet response unit (PRU). […] Percent inhibition is reported as the percentage change from baseline using a BASE unit. This BASE unit is derived from a second channel run parallel with the ADP channel using the agonist iso-TRAP (Thrombin Receptor Activating Peptide). From this point “percentage inhibition” will reflect this formula: % Inhibition=[(BASE−PRU)×100]/BASE. […] (2004) and Lev E I et al (2006)). The principal time point of interest for comparisons of genotype to drug response was specified as two hours after the first loading dose as at this point all patients had received only 600 mg. […] The effect of different dosages on response in genotype groups was assessed at four hours.

T1 sequence (Q9H244 whole entry): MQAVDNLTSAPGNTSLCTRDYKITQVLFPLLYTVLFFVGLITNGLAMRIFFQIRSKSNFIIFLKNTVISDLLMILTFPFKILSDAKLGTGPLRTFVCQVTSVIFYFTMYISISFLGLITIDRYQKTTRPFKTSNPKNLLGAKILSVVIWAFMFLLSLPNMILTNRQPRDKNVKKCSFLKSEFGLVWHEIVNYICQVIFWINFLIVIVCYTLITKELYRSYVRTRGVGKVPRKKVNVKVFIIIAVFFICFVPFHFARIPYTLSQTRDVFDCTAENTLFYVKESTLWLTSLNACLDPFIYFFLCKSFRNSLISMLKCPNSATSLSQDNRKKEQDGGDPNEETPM

Compound: CC(=O)Oc1cc2c(s1)CCN(C(C(=O)C1CC1)c1ccccc1F)C2 (stereo not shown) [prasugrel, 5-[2-cyclopropyl-1-(2-fluorophenyl)-2-oxoethyl]-4,5,6,7-tetrahydrothieno[3,2-c]pyridin-2-yl acetate]
Elimination half life [1]: 3.7 h

Platelet inhibition (P2Y12 receptor; 75 mg maintenance dose, CYP2C19*2 or *4 carriers): 24+/−18% | Non-responders (seven hour percent inhibition <10%) (P2Y12 receptor; 600 mg (low dose) group, six out of 26): 26% | Platelet inhibition (P2Y12 receptor; 600 mg loading dose, CYP2C19*2 or *4 carriers): 16+/−13% | Non-responders (seven hour percent inhibition <10%) (P2Y12 receptor; 1,200 mg (high dose) group, two out of 37): 5% | Platelet inhibition (P2Y12 receptor; 2 hours after 600 mg, CYP2C19*1*1 carriers): 26+/−20% | Platelet inhibition (P2Y12 receptor; 2 hours after 600 mg, CYP2C19*2, *4 and *17 carriers): 13+/−20% | Platelet inhibition (P2Y12 receptor; four hours, 600 mg loading dose): 23.7% | Platelet inhibition (P2Y12 receptor; four hours, 600 mg loading dose, CYP2C19*1*1 carriers): 35+/−27% | Platelet inhibition (P2Y12 receptor; four hours, 1200 mg loading dose, CYP2C19*1*1 carriers): 51+/−28% | Platelet inhibition (P2Y12 receptor; four hours, 1,200 mg split loading dose): 42% | Platelet inhibition (P2Y12 receptor; higher (150 mg) maintenance dose, CYP2C19*2 or *4 carriers): 49+/−31% | Platelet inhibition (P2Y12 receptor; higher (1200 mg) loading dose, CYP2C19*2 or *4 carriers): 36+/−24% | inhibition at 75 mg (P2Y12 receptor; 75 mg daily maintenance dose, CYP2C19*1*1 carriers): 40% | inhibition at 150 mg (P2Y12 receptor; 150 mg daily maintenance dose, CYP2C19*1*1 carriers): 51% | inhibition at 75 mg (P2Y12 receptor; one week, 75 mg once daily): 28.8% | inhibition at 150 mg (P2Y12 receptor; one week, 150 mg once daily): 49.8% | Platelet inhibition (P2Y12 receptor; seven days, 600 mg loading dose group): 35.7% | Platelet inhibition (P2Y12 receptor; seven days, 1,200 mg split loading dose group): 44.5% | Platelet inhibition (P2Y12 receptor; seven hours, 600 mg loading dose): 28.7% | Platelet inhibition (P2Y12 receptor; seven hours, 1,200 mg split loading dose): 48.9% | Platelet inhibition (P2Y12 receptor; seven hours, two individuals carrying both 2C19 and 2C9 poor responder genotypes): 8% and 11% | Platelet inhibition (P2Y12 receptor; two hours after 600 mg, two P2Y12 H2 haplotype CC homozygotes): < 2%
Compound: COC(=O)[C@H](c1ccccc1Cl)N1CCc2sccc2C1 [clopidogrel, (+)-(S)-methyl 2-(2-chlorophenyl)-2-(6,7-dihydrothieno[3,2-c]pyridin-5(4H)-yl)acetate]
Patients classified as poor responders or resistant [2]: 20-40% | Bioavailability ([3]; in vivo): approximately 50% | Elimination half life ([3]; in vivo): 7.2 to 7.6 h | Time to peak effect after dosing ([3]; in vivo): six | Share of a dose converted by esterases to inactive metabolites ([3]; inactivation pathway): ~85%
